Measurements from patent publication US20040235942A1 (priority 2003, published 2004).

Tests used:
[1] = system: factor VII activity and prothrombin fragment F1+2; settings: in vivo; cited from earlier work
[2] = system: patients with idiopathic venous thromboembolism; experiment: PREVENT trial: composite endpoint of recurrent VTE, major hemorrhage and all-cause mortality; assay type: in vivo, human
Text: (§1) All participants were followed for recurrent VTE, major bleeding events, and all-cause mortality.
(§2) As an index of net clinical benefit, we defined on an a priori basis a composite endpoint of recurrent VTE, major hemorrhage, and all-cause mortality. Incident stroke events were also monitored. These were classified as hemorrhagic or thromboembolic on the basis of clinical records or CT/MRI scanning which were available for all episodes. To avoid double-counting, hemorrhagic strokes were considered as major hemorrhages in analyses using the combined endpoint of recurrent thrombosis, major hemorrhage, and all-cause mortality.
Comparisons between the warfarin and placebo groups in the distributions of continuous variables used Wilcoxon rank sum tests; for categorical variables, comparisons used Chi-square tests. The primary analysis was an intention-to-treat comparison of the difference between time to first confirmed recurrent VTE after randomization in the two treatment arms using a two-sided log-rank test. The method of Kaplan and Meier was used to estimate the probability of recurrence by time within treatment groups. Estimation of the number of patients needed to treat (NNT) to prevent one recurrent event was based on rates at one year. […]

[3] = system: patients with idiopathic venous thromboembolism; experiment: PREVENT trial: recurrent venous thromboembolism; assay type: in vivo, human
Text: as §1
(§3) All index events were confirmed by objective criteria at the central Clinical Coordinating Center based upon venography, compression ultrasound or MRI reports (for deep vein thrombosis) or by ventilation/perfusion scans, angiograms, or chest computed tomography scans (for pulmonary embolism). Idiopathic events were defined as those not occurring within 90 days of surgery, trauma, or a diagnosis of metastatic cancer. […] Every patient gave written informed consent and the study protocol was approved by each institutional review board.
The run-in phase was also used to exclude individuals with less than 80 percent compliance.
(§4) Randomization was stratified by clinical site, time since index event (≦6 months, >6 months) and by whether the index event was the patient's first ever VTE. All participants were then followed with office visits once every two months that included blinded INR evaluations and dose adjustments. To further ensure blinding, sham dose adjustments were made in the placebo group.
(§5) As PREVENT was specifically designed to evaluate clinically relevant recurrent thromboembolic events, no surveillance for asymptomatic thrombosis was undertaken. Rather, at each visit the occurrence of any incident clinical events since the last visit two months earlier was evaluated. All endpoints were reviewed by a committee of physicians unaware of study drug assignment. The endpoint of recurrent deep vein thrombosis was confirmed if there was a positive venography study, doppler compression ultrasound, or MRI. Events documented by clinical diagnosis alone were not confirmed. […] Major hemorrhage was defined as any bleeding episode that led either to hospitalization or transfusion.
Comparisons between the warfarin and placebo groups in the distributions of continuous variables used Wilcoxon rank sum tests; for categorical variables, comparisons used Chi-square tests. The primary analysis was an intention-to-treat comparison of the difference between time to first confirmed recurrent VTE after randomization in the two treatment arms using a two-sided log-rank test. The method of Kaplan and Meier was used to estimate the probability of recurrence by time within treatment groups. Estimation of the number of patients needed to treat (NNT) to prevent one recurrent event was based on rates at one year. We used the proportional hazards model for estimation of the relative hazard of recurrent VTE associated with low-intensity warfarin treatment and obtained confidence intervals from this model. The hypothesis of a varying effect of treatment over time was tested in a proportional hazards model including an interaction of treatment with time. Tests and estimates of treatment effects on the composite endpoint used the same methods.
The primary pre-specified subgroup analysis evaluated the effect of treatment separately in persons with and without either factor V Leiden or the prothrombin mutation. The hypothesis of a different effect of treatment by genetic status was tested in a proportional hazards model including the interaction of treatment with the presence of either factor V Leiden or G20210A prothrombin mutation. Other descriptive comparisons within subgroups used the same methods.

[4] = system: patients with idiopathic venous thromboembolism; experiment: PREVENT trial: bleeding, mortality, stroke, cancer, myocardial infarction, drug discontinuation; assay type: in vivo, human
Text: as §1, §3, §4, §5, §2
The method of Kaplan and Meier was used to estimate the probability of recurrence by time within treatment groups. Estimation of the number of patients needed to treat (NNT) to prevent one recurrent event was based on rates at one year. […] The hypothesis of a varying effect of treatment over time was tested in a proportional hazards model including an interaction of treatment with time. Tests and estimates of treatment effects on the composite endpoint used the same methods.

[5] = system: International Normalized Ratio; experiment: PREVENT trial: blinded INR evaluation (CoaguChek fingerstick); assay type: in vivo, human; settings: during follow-up; interquartile range 1.4 to 2.0
Text: During the run-in, at randomization, and throughout follow-up, all INR assessments at each study site were made using specially designed fingerstick devices with an identical thromboplastin [International Sensitivity Index 2.0] (CoaguChek, Roche Diagnostics, Indianapolis, Ind.). These devices were altered electronically to provide a coded study value which was transmitted to the Data Coordinating Center. All dose adjustments were made in a blinded manner using a simple clinical algorithm (Appendix A).
as §4

[6] = requires twice daily dosing; cited from earlier work

For `CC(=O)CC(c1ccccc1)c1c(O)c2ccccc2oc1=O` (centres unmarked) [low-intensity warfarin, warfarin], the “reducing biochemical markers of coagulation such as factor VII activity and levels of prothrombin fragment F1+2” value [1] is listed as “effective”, the “Composite Endpoint, Rate” value ([2]; first VTE, major bleed, or death) is listed as 4.1 events per 100 person years and the “reduction in composite study endpoint of recurrent VTE, major hemorrhage, or death” value ([2]; versus placebo) is listed as 48%. The “reduction in risk of recurrent VTE” value ([3]; analysis by use or non-use of long-term anticoagulation at the time of the recurrent event) was 81%, the “participants with recurrent VTE after cessation of study drug” value ([3]; in vivo) was 7 and the “Recurrent VTE, Rate” value ([3]; intention-to-treat) was 2.6 events per 100 person years. The “reduction in risk of recurrent VTE” value ([3]; men) was 53%, the “Recurrent VTE, Rate” value ([3]; subgroup: Factor V Leiden or Prothrombin Mutation absent) was 2.7 events per 100 person years and the “Recurrent VTE, Rate” value ([3]; subgroup: Factor V Leiden or Prothrombin Mutation present) was 2.2 events per 100 person years. For the same molecule, the “Recurrent VTE, Rate” value ([3]; subgroup: age 30-44 years) was 3.3 events per 100 person years, the “Recurrent VTE, Rate” value ([3]; subgroup: age 45-64 years) was 1.7 events per 100 person years and the “Recurrent VTE, Rate” value ([3]; subgroup: age 65-89 years) was 3.9 events per 100 person years. For the same molecule, the “Recurrent VTE, Rate” value ([3]; subgroup: men) was 4.0 events per 100 person years, the “Recurrent VTE, Rate” value ([3]; subgroup: women) was 1.1 events per 100 person years and the “risk reduction of recurrent VTE” value ([3]; those without factor V Leiden or the prothrombin mutation) was 58%. For the same molecule, the “Recurrent VTE, Rate” value ([3]; time after randomization >1 year) was 2.5 events per 100 person years, the “Recurrent VTE, Rate” value ([3]; time after randomization ≦1 year) was 2.7 events per 100 person years and the “patients needed to be treated to prevent one recurrent event” value ([3]; treated for one year, based on rates at one year) was 14 patients. The “risk reduction of recurrent VTE” value ([3]; versus placebo, intention-to-treat) was 64%, the “reduction in risk of recurrent VTE” value ([3]; women) was 80% and the “Cancer, Rate” value ([4]; in vivo) was 0.7 events per 100 person years. For the same molecule, the “Deaths, Rate” value ([4]; in vivo) was 0.7 events per 100 person years, the “Major bleeding, Rate” value ([4]; in vivo) was 0.9 events per 100 person years and the “Myocardial Infarction, Rate” value ([4]; in vivo) was 0.5 events per 100 person years. For the same molecule, the confirmed strokes ([4]; in vivo) was 1, the “patients in whom study drug was discontinued before completion of follow-up” value ([4]; in vivo) was 62 patients and the “major bleeds that were gastrointestinal” value ([4]; of 5 major bleeds) was 3. The “major bleeds that were hematuria in the setting of renal calculus removal” value ([4]; of 5 major bleeds) was 1, the “major bleeds that were lower-extremity hematoma” value ([4]; of 5 major bleeds) was 1 and the “major hemorrhage requiring transfusion of packed red blood cells” value ([4]; patient was receiving full-dose warfarin at the time of the bleed) was 1. The “median INR” value [5] was 1.7.
In the case of `CCOC(=O)CN[C@@H](C(=O)N1CC[C@H]1C(=O)NCc1ccc(/C(N)=N\O)cc1)C1CCCCC1` [ximelagatran], the half-life [6] is given as “relatively short”.
